According to patent publication US20090098536A1, “Method for subgroup analysis in subjects having or being suspected of having inflammatory disease, use of anti-p38MAPK antibodies, kits and their use” (c-a-i-r- biosciences GmbH, priority 2007, published 2009):

Key:
[1] = biological target: p38MAPKα (Homo sapiens, UniProt Q16539); conditions: disclosed in WO 2004/110990; cited from earlier work
[2] = tested on: patients with moderate to severe rheumatoid arthritis; experiment: VeRA trial of the p38MAPK inhibitor VX-702 in rheumatoid arthritis; format: in vivo, human; conditions: according to a Monte Carlo simulation of the distribution of the effects
Procedure: It has been claimed that p38MAPK inhibitors were of benefit in treating a large variety of disorders. […] In the VeRA trial, which was conducted to evaluate treatment effects in terms of characteristic manifestations of the disease such as tender joints, swollen joints, morning stiffness and disease activity in a cohort of 315 patients with moderate to severe rheumatoid arthritis, approximately 40% of patients were responsive to treatment with the p38MAPK inhibitor VX-702, compared to a placebo effect of about 30%, arguing for a biochemical net response rate of about 28% according to a Monte Carlo simulation of the distribution of the effects. So far, no explanation for this evident dichotomy between responders and non-responders has been proposed yet.

[3] = tested on: patients with moderate to severe rheumatoid arthritis; conditions: cohort of 315 patients with moderate to severe rheumatoid arthritis; placebo effect about 30%; cited from earlier work

Chain of p38MAPKα (Q16539 1-360 isoform Q16539-2): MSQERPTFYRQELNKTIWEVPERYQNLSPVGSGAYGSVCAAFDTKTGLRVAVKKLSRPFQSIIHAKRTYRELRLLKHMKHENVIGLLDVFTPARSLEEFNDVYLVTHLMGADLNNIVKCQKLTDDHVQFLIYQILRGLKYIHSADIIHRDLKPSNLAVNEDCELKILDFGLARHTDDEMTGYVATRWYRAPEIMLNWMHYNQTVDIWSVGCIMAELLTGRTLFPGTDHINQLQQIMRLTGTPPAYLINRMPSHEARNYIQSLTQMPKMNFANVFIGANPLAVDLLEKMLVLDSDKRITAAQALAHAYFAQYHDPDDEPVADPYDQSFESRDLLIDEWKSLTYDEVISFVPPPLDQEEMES

SMILES | IC50 [1] [nM] | biochemical net response rate [2] | patients responsive to treatment [3]
Fc1ccc(-c2nc3occn3c2-c2ccnc(NC3CC3)n2)cc1 [4-(4-fluorophenyl)-5-(2-[cyclopropyl-amino]-pyrimidyl-4-yl)-imidazooxazole] | 0.44 | – | –
NC(=O)c1ccc(N(C(N)=O)c2c(F)cccc2F)nc1-c1ccc(F)cc1F [VX-702] | – | about 28% | approximately 40%
